One data set deals with MCF7. The data set can be described thus: Cytotoxicity against human MCF7 cells assessed as cell growth inhibition incubated for 96 hrs by SRB assay. In kind it is functional. A general note: The SRB assay estimates cell density from bound dye.
Data set [1] is described as follows: Inhibition of bovine brain tubulin polymerization preincubated for 15 mins followed by GTP addition and measured after 20 mins by spectrophotometric analysis. More on the design: species or system Bos taurus.
Data set [2] has as its system MDA-MB-231. The data set can be described thus: Cytotoxicity against human MDA-MB-231 cells assessed as cell growth inhibition incubated for 96 hrs by SRB assay. In kind it is functional.
In data set [3] the target is T1, Tubulin (Homo sapiens) (UniProt P68371+Q9H4B7+P0DPH7+P68366+Q13509+Q71U36+P04350+Q3ZCM7+P07437+P68363+Q9BQE3+Q6PEY2+Q13885+Q9BVA1+Q9BUF5). The data set can be described thus: Inhibition of [3H]Colchicine binding to tubulin (unknown origin) at 5 uM incubated for 10 mins by scintillation counter relative to control. In kind it is protein-complex assay.
In data set [4] the test system is Mus musculus. The data set is described as follows: Vascular disrupting activity in BALB/c mouse implanted with mouse orthotopic RENCA-luc assessed as hemorrhage at 150 mg/kg administered as single dose and measured after 2.5 hrs by H&E staining based analysis. The class given is functional, organism-based.
In data set [5] the test system is Mus musculus. The data set is described as follows: Vascular disrupting activity in BALB/c mouse implanted with mouse orthotopic RENCA-luc assessed as necrosis at 150 mg/kg administered as single dose and measured after 2.5 hrs by H&E staining based analysis. In kind it is functional, organism-based.
In data set [6] the test system is Mus musculus. The data set can be described thus: Vascular disrupting activity in BALB/c mouse implanted with mouse orthotopic RENCA-luc assessed as reduction in bioluminescence imaging signal at 150 mg/kg administered as single dose and measured at 2.5 hrs by imaging analysis relative to control. More on the design: scale not given: the % may be the effect or the level left. The class given is functional.

The subject of data set [7] is Mus musculus. The data set can be described thus: Vascular disrupting activity in BALB/c mouse implanted with mouse orthotopic RENCA-luc assessed as reduction in bioluminescence imaging signal at 100 mg/kg administered as single dose and measured at 2.5 hrs by imaging analysis. The class given is functional, organism-based.
The nature of data set [8]: Aqueous solubility of compound. The class given is physicochemical. The following applies: water.
Data set [9] deals with T1, Tubulin (Homo sapiens). The data set is described as follows: Inhibition of [3H]Colchicine binding to tubulin (unknown origin) at 0.5 uM incubated for 10 mins by scintillation counter relative to control. In kind it is protein-complex assay.
For data set [10], the system named is MDA-MB-231. The data set is described as follows: Induction of morphological changes in human MDA-MB-231 cells assessed as cell rounding at 100 nM measured after 20 hrs by scratch assay relative to control. In kind it is functional.
The test system of data set [11] is MDA-MB-231. The data set is described as follows: Inhibition of cell migration in human MDA-MB-231 cells at 100 nM incubated for 20 hrs by scratch assay. In kind it is functional, cell-based.
For data set [12], the target named is T1, Tubulin (Homo sapiens). The data set is described as follows: Induction of microtubule disruption in human MDA-MB-231 cells assessed as reduction in fluorescence at 100 nM measured at <1.5 mins by ViaFluor 488 live cell microtubule and Hoechst 33342 staining based fluorescence microscopic analysis.
In data set [13] the test system is MDA-MB-231. The data set can be described thus: Inhibition of cell migration in human MDA-MB-231 cells at 50 nM incubated for 72 hrs by scratch assay. The class given is functional, cell-based.
In data set [14] the test system is MDA-MB-231. The data set can be described thus: Inhibition of cell migration in human MDA-MB-231 cells at 50 nM incubated for 4 hrs by scratch assay. The class given is functional, cell-based.
The target of data set [15] is T1, Tubulin (Homo sapiens). The data set can be described thus: Induction of microtubule disruption in human MDA-MB-231 cells at 100 nM measured at 30 mins by ViaFluor 488 live cell microtubule and Hoechst 33342 staining based fluorescence microscopic analysis.
For data set [16], the system named is MDA-MB-231. The data set is described as follows: Induction of morphological changes in human MDA-MB-231 cells at 200 nM measured within 1 hrs by scratch assay. The class given is functional, cell-based.
Data set [17] relates to MDA-MB-231. The data set is described as follows: Inhibition of cell proliferation in human MDA-MB-231 cells at 50 nM incubated for 6 hrs by scratch assay. In kind it is functional, cell-based.
Data set [18] deals with MDA-MB-231. The data set can be described thus: Inhibition of cell migration in human MDA-MB-231 cells at 100 nM incubated for 30 hrs by scratch assay. The class given is functional, cell-based.
The test system of data set [19] is MDA-MB-231. The data set can be described thus: Inhibition of cell migration in human MDA-MB-231 cells at 200 nM by scratch assay. The class given is functional, cell-based.
Data set [20] relates to MDA-MB-231. The data set is described as follows: Induction of morphological changes in human MDA-MB-231 cells assessed as cell rounding at 200 nM measured after 14 hrs by scratch assay. The class given is functional.
In data set [21] the test system is MDA-MB-231. The data set can be described thus: Inhibition of cell proliferation in human MDA-MB-231 cells at 200 nM by scratch assay. In kind it is functional, cell-based.
Data set [22] deals with MDA-MB-231. The data set can be described thus: Induction of morphological changes in human MDA-MB-231 cells at 100 nM measured within 2 hrs by scratch assay. The class given is functional, cell-based.
Data set [23] has as its system MDA-MB-231. The data set is described as follows: Induction of G2/M phase cell cycle arrest in human MDA-MB-231 cells at 200 to 500 nM incubated for 48 hrs by PI staining based flow cytometric analysis. The following applies: dose 200-500 nM. In kind it is functional. (In general: A flow cytometer gives signals particle by particle.)
The test system of data set [24] is MDA-MB-231. The data set can be described thus: Inhibition of cell migration in human MDA-MB-231 cells at 50 nM incubated for 6 hrs by scratch assay. In kind it is functional, cell-based.
Data set [25] deals with MDA-MB-231. The data set is described as follows: Inhibition of cell proliferation in human MDA-MB-231 cells at 100 nM incubated for 20 hrs by scratch assay. In kind it is functional, cell-based.

Each structure is given as a SMILES string. Active and inactive are the calls of the source. No cut-off for these calls is given here. Some results are limits rather than exact numbers.

One may read the GI50 as the concentration at which growth is held to half of that of the control. What is called IC50 is the concentration at which inhibition is half-maximal. Broadly, the inhibition is how much of the control response was suppressed. By solubility is commonly meant the dissolved amount per volume that the medium holds.

Turning to `COc1cc(C(=O)c2c[nH]c3cc(-c4cccc([N+](=O)[O-])c4)ccc23)cc(OC)c1OC`, the GI50 in the data set with MCF7 was 0.028 µM; with MDA-MB-231 [2], 0.11 µM. In [1], this compound registered an IC50 of 0.65 µM. The compound further yielded an inhibition on Tubulin (Homo sapiens) [3] of 41%.

On to `COc1ccc(-c2ccc3c(C(=O)c4cc(OC)c(OC)c(OC)c4)c[nH]c3c2)cc1`, for which the GI50 in the data set with MCF7 is 0.098 µM; in the data set on MDA-MB-231 [2] it was 1.86 µM. This compound also registered an IC50 in data set [1] of 2.5 µM. At Tubulin (Homo sapiens) [3], this compound yielded an inhibition of 9.1%.

In the case of `COc1cc(C(=O)c2c[nH]c3cc(-c4cccc(OP(=O)([O-])[O-])c4)ccc23)cc(OC)c1OC.[Na+].[Na+]`, the results for the GI50 with MCF7 and in the data set on MDA-MB-231 [2] were 4.2 µM and 0.694 µM, respectively. Besides, the IC50 in [1] came out at 9 µM. For the same compound, the result with Mus musculus [4], in the data set on Mus musculus [5] and in the data set on Mus musculus [7] was Active. The Activity in the data set on Mus musculus [6] is recorded as more than 90%. Moreover, the solubility in [8] was not above 2.4 mg/mL.

For the compound `COc1cc(C(=O)c2c[nH]c3cc(-c4cccc(N)c4)ccc23)cc(OC)c1OC`, the results for the GI50 in the data set on MCF7 and in the data set with MDA-MB-231 [2] were 0.065 µM and 0.025 µM, respectively. The compound also had an IC50 in data set [1] of 0.42 µM. For the same compound, the inhibition at Tubulin (Homo sapiens) [9] turned out to be 51%; on Tubulin (Homo sapiens) [3] it was 91%.

Regarding `COc1cc(C(=O)c2c[nH]c3cc(-c4ccccc4)ccc23)cc(OC)c1OC`, the GI50 in the data set with MCF7 came to 0.073 µM; in the data set on MDA-MB-231 [2], 0.156 µM. Half-maximal inhibition in [1] (IC50) required 0.28 µM. This compound had an inhibition on Tubulin (Homo sapiens) [3] of 86%.

As to `COc1cc(C(=O)c2c[nH]c3cc(-c4ccc(C(F)(F)F)cc4)ccc23)cc(OC)c1OC`, the GI50 was 1.4 µM in the data set with MCF7 and 4.06 µM in the data set with MDA-MB-231 [2]. Further, in data set [1], the IC50 is more than 20 µM.

Turning to `COc1cc(C(=O)c2c[nH]c3cc(-c4cccc(O)c4)ccc23)cc(OC)c1OC`, the Activity is on record as less than 90% in the data set with MDA-MB-231 [10] and more than 90% in the data set on MDA-MB-231 [20]. Further, the inhibition result with MDA-MB-231 [11], with MDA-MB-231 [14], with MDA-MB-231 [18], with MDA-MB-231 [19], in the data set on MDA-MB-231 [21] and in the data set on MDA-MB-231 [25] was “Active” in each case. Besides, the GI50 with MCF7 was found to be 0.32 µM; with MDA-MB-231 [2], 0.102 µM. This compound displayed an IC50 in data set [1] of 0.57 µM. Further, the result at Tubulin (Homo sapiens) [12], at Tubulin (Homo sapiens) [15], with MDA-MB-231 [16], with MDA-MB-231 [22] and with MDA-MB-231 [23] was Active. Further, the inhibition entry in the data set on MDA-MB-231 [13], in the data set with MDA-MB-231 [17] and in the data set with MDA-MB-231 [24] was “inactive” throughout. Also, on Tubulin (Homo sapiens) [3], the inhibition came to 87%.

With `COc1cccc(-c2ccc3c(C(=O)c4cc(OC)c(OC)c(OC)c4)c[nH]c3c2)c1`, the GI50 in the data set with MCF7 was determined as 0.023 µM; with MDA-MB-231 [2] it was 0.036 µM. In addition, the IC50 in data set [1] is 0.37 µM. The compound also came in with an inhibition at Tubulin (Homo sapiens) [3] of 87%.

In the case of `COc1ccc(-c2ccc3c(C(=O)c4cc(OC)c(OC)c(OC)c4)c[nH]c3c2)cc1O`, the 50% growth inhibitory concentration (GI50) came to 1.5 µM with MCF7 and 0.828 µM in the data set on MDA-MB-231 [2]. Further, the IC50 in [1] was more than 20 µM.

With `COc1cc(C(=O)c2c[nH]c3cc(-c4cc5ccccc5o4)ccc23)cc(OC)c1OC`, the GI50 in the data set with MCF7 was determined as 0.95 µM; in the data set with MDA-MB-231 [2] it was 2.07 µM. The IC50 in data set [1] is more than 20 µM.

As for `COc1cc(C(=O)c2c[nH]c3cc(-c4ccc(C)cc4)ccc23)cc(OC)c1OC`, the results for the concentration for 50% growth inhibition (GI50) with MCF7 and with MDA-MB-231 [2] were 0.56 µM and 2.01 µM, respectively. The compound further had a half-maximal inhibitory concentration (IC50) in [1] of 1.7 µM. In addition, at Tubulin (Homo sapiens) [3], the inhibition was found to be 17%.

Consider `CCc1ccc(-c2ccc3c(C(=O)c4cc(OC)c(OC)c(OC)c4)c[nH]c3c2)cc1`, for which the GI50 with MCF7 is 1.8 µM; in the data set with MDA-MB-231 [2] it was 2.22 µM. In data set [1], this compound came in with an IC50 of more than 20 µM.

On to `COc1cc(C(=O)c2c[nH]c3cc(-c4ccc(C(C)=O)s4)ccc23)cc(OC)c1OC`, for which the GI50 in the data set with MCF7 came out at 0.073 µM; in the data set on MDA-MB-231 [2], 3.23 µM. The compound also showed an IC50 in data set [1] of more than 20 µM.

As to `COc1ccc(/C=C\c2cc(OC)c(OC)c(OC)c2)cc1O` [COMBRETASTATIN A4], the GI50 was 0.009 µM in the data set on MCF7 and 0.0035 µM in the data set on MDA-MB-231 [2].

`CCc1ccc(-c2ccc3c(C(=O)c4cc(OC)c(O)c(OC)c4)c[nH]c3c2)cc1`: the GI50 in the data set on MCF7 and with MDA-MB-231 [2] was more than 5 µM in each case. The same compound showed a half-inhibitory concentration (IC50) in data set [1] of more than 20 µM.

The record behind these values is ChEMBL document CHEMBL5537121, “Synthesis and biological evaluation of structurally diverse 6-aryl-3-aroyl-indole analogues as inhibitors of tubulin polymerization” (Eur J Med Chem, 2024).
